Laboratory results as given in US12447187B2, “Composition for preventing and treating inflammatory bowel disease including puer tea extract” (priority 2021, dated 2025).

System: DSS-induced ulcerative colitis
Assay: DSS-induced ulcerative colitis model (body weight, colon length, histology, DAI)
Format: in vivo, ICR mice
Details: 3% DSS mice
Method: Experimental animals, ICR mice (6 weeks old male) were supplied from Daehan Biolink (Chungcheongbuk-do Province, Korea) and used. After 1 week of adaptation of experimental animals, 7 animals were accommodated in each group. During the experiment, the breeding conditions were 23±2° C. for a temperature, 55±10% for a relative humidity, and 150 to 300 Lux for lighting with a 12-hour cycle (artificial lighting, 8:00 am-8:00 pm). Feed was powdered feed for laboratory animals, and water was provided freely during the experiment period. Acute ulcerative colitis was induced in mice while allowing free intake of water containing 3% (w/v) of DDS for 14 days. During the experiment, each group of experimental animals was observed by checking whether the mice lost weight, urine and feces tests, and bleeding every day. Experimental animals were classified into the following four groups and the experiment was performed (Table 1). Puer tea extract and ASA were orally administered once a day for 14 days from the day of DDS treatment. After the experiment, mice were sacrificed, and the results were measured. Ulcerative colitis is measured by clinical signs such as weight loss, diarrhea with bleeding and mucus, and shortens the length of the colon. […] Weight loss is calculated as the difference between the initial and present weight. Visible rectal bleeding means diarrhea accompanied by bleeding or total rectal bleeding, and the DAI was calculated by the following equation. […] Puer tea extract (100 mg/kg) was orally administered once a day to 7 mice induced with 3% DSS for 14 days, and then the weights of the mice were measured, and the mean of the data in the triplicate experiment was expressed as ±S.D. Puer tea extract (100 mg/kg) was orally administered once a day for 14 days to 7 mice induced with 3% DSS for 14 days, and then the colon was removed, and the colon length was evaluated (A of FIG. 2). […] DAI was calculated as in Examples 1-5), and the mean of the experimental data was expressed as ±SD.

## 5-acetylsalicylic acid [5-ASA]
100 mg/kg orally once a day for 14 days, normal group 8.01±0.16, DSS group 5.25±0.12
  colon length: 6.77±0.33 cm
14 days, vs DSS group
  thickness of the barrier muscle layer (H&E colon sections): became thinner again
Once a day for 14 days, vs DSS single treatment
  DAI clinical symptoms (weight loss, diarrhea, rectal bleeding): significantly decreased
